The test system of one test is NCI/ADR-RES. Put plainly: Cytotoxicity against human NCI/ADR-RES cells assessed as cell viability at 10 uM incubated for 48 hrs by sulforhodamine B assay relative to control. The settings on record: read-out: Activity. It counts as functional. Background: Sulforhodamine B stains cellular protein and so reports cell mass.
In the next test the test system is OVCAR-5. As to the kind of experiment: Cytotoxicity against human OVCAR-5 cells assessed as cell viability at 10 uM incubated for 48 hrs by sulforhodamine B assay relative to control. The test is classed as functional. The settings on record: read-out: Activity.
The test system of the next test is BT-549. As to the kind of experiment: Cytotoxicity against human BT-549 cells assessed as cell viability at 10 uM incubated for 48 hrs by sulforhodamine B assay relative to control. It counts as functional. The settings on record: read-out: Activity.
The next test relates to MDA-MB-435. Put plainly: Cytotoxicity against human MDA-MB-435 cells assessed as cell viability at 10 uM incubated for 48 hrs by sulforhodamine B assay relative to control. The test is classed as functional. The settings on record: read-out: Activity.
In another test the test system is 786-0. Put plainly: Cytotoxicity against human 786-0 cells assessed as cell viability at 10 uM incubated for 48 hrs by sulforhodamine B assay relative to control. The test is classed as functional. The settings on record: read-out: Activity.
The next test concerns TK-10. As to the kind of experiment: Cytotoxicity against human TK-10 cells assessed as cell viability at 10 uM incubated for 48 hrs by sulforhodamine B assay relative to control. It counts as functional. The settings on record: read-out: Activity.
The subject of a further test is SK-MEL-28. As to the kind of experiment: Cytotoxicity against human SK-MEL-28 cells assessed as reduction in cell viability by MTT assay. It counts as functional, cell-based. (Tetrazolium assays rely on reduction of a dye to a coloured formazan, in cell work by metabolically active cells.)
In the next test the test system is OVCAR-4. As to the kind of experiment: Cytotoxicity against human OVCAR-4 cells assessed as cell viability at 10 uM incubated for 48 hrs by sulforhodamine B assay relative to control. The test is classed as functional. The settings on record: read-out: Activity.
For a further test, the system named is A-375. As to the kind of experiment: Cytotoxicity against human A-375 cells assessed as reduction in cell viability by MTT assay. It counts as functional, cell-based.
The next test relates to OVCAR-8. Put plainly: Cytotoxicity against human OVCAR-8 cells assessed as cell viability at 10 uM incubated for 48 hrs by sulforhodamine B assay relative to control. It counts as functional. The settings on record: read-out: Activity.
A further test deals with U-251. As to the kind of experiment: Cytotoxicity against human U-251 cells assessed as cell viability at 10 uM incubated for 48 hrs by sulforhodamine B assay relative to control. It counts as functional. The settings on record: read-out: Activity.
For another test, the system named is Hs-578T. As to the kind of experiment: Cytotoxicity against human HS-578T cells assessed as cell viability at 10 uM incubated for 48 hrs by sulforhodamine B assay relative to control. It counts as functional. The settings on record: read-out: Activity.
A further test has as its system OVCAR-3. As to the kind of experiment: Cytotoxicity against human OVCAR-3 cells assessed as cell viability at 10 uM incubated for 48 hrs by sulforhodamine B assay relative to control. It counts as functional. The settings on record: read-out: Activity.
A further test has as its system PC-3. Put plainly: Cytotoxicity against human PC-3 cells assessed as cell viability at 10 uM incubated for 48 hrs by sulforhodamine B assay relative to control. It counts as functional. The settings on record: read-out: Activity.
The next test has as its system SF-295. Put plainly: Cytotoxicity against human SF-295 cells assessed as cell viability at 10 uM incubated for 48 hrs by sulforhodamine B assay relative to control. The test is classed as functional. The settings on record: read-out: Activity.
The subject of a further test is Malme-3M. Put plainly: Cytotoxicity against human Malme-3M cells assessed as cell viability at 10 uM incubated for 48 hrs by sulforhodamine B assay relative to control. It counts as functional. The settings on record: read-out: Activity.
The next test has as its system HL-60(TB). Put plainly: Cytotoxicity against human HL-60(TB) cells assessed as cell viability at 10 uM incubated for 48 hrs by sulforhodamine B assay relative to control. The test is classed as functional. The settings on record: read-out: Activity.
The target in test [1] is Serine/threonine-protein kinase B-raf (Homo sapiens, UniProt P15056, V600E). Put plainly: Inhibition of human BRAF V600E mutant using MEK1 as substrate by […] assay.
Sequence of Serine/threonine-protein kinase B-raf (Homo sapiens, UniProt P15056, V600E) (P15056 2-766 V600E limits assumed): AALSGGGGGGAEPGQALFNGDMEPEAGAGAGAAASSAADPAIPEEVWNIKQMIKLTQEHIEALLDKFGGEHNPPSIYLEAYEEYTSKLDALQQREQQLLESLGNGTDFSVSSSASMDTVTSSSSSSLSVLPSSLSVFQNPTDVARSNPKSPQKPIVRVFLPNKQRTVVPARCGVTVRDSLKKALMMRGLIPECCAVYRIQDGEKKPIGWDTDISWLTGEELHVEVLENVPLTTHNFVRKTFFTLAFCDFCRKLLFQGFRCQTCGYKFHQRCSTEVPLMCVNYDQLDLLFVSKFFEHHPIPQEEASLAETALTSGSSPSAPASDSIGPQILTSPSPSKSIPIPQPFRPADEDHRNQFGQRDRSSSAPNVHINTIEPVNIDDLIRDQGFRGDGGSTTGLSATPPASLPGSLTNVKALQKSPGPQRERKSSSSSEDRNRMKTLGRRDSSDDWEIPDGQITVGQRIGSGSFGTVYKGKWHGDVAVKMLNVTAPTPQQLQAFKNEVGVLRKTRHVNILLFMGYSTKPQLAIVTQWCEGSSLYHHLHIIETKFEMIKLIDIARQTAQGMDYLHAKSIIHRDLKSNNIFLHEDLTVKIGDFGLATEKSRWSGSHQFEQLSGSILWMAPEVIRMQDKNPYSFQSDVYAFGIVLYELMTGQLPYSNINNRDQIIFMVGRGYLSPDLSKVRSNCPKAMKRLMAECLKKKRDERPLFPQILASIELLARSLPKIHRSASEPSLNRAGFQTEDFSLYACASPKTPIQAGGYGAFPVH
The test system of a further test is M14. As to the kind of experiment: Cytotoxicity against human M14 cells assessed as cell viability at 10 uM incubated for 48 hrs by sulforhodamine B assay relative to control. It counts as functional. The settings on record: read-out: Activity.
For another test, the system named is L132. As to the kind of experiment: Cytotoxicity against human L132 cells assessed as reduction in cell viability by MTT assay. The test is classed as cell-based.
For the next test, the system named is SF-539. As to the kind of experiment: Cytotoxicity against human SF-539 cells assessed as cell viability at 10 uM incubated for 48 hrs by sulforhodamine B assay relative to control. The settings on record: read-out: Activity. The test is classed as functional.
The target in test [2] is Serine/threonine-protein kinase B-raf (Homo sapiens, UniProt P15056). As to the kind of experiment: Inhibition of human BRAF using MEK1 as substrate by […] assay.
Sequence of Serine/threonine-protein kinase B-raf (Homo sapiens, UniProt P15056) (P15056 whole entry): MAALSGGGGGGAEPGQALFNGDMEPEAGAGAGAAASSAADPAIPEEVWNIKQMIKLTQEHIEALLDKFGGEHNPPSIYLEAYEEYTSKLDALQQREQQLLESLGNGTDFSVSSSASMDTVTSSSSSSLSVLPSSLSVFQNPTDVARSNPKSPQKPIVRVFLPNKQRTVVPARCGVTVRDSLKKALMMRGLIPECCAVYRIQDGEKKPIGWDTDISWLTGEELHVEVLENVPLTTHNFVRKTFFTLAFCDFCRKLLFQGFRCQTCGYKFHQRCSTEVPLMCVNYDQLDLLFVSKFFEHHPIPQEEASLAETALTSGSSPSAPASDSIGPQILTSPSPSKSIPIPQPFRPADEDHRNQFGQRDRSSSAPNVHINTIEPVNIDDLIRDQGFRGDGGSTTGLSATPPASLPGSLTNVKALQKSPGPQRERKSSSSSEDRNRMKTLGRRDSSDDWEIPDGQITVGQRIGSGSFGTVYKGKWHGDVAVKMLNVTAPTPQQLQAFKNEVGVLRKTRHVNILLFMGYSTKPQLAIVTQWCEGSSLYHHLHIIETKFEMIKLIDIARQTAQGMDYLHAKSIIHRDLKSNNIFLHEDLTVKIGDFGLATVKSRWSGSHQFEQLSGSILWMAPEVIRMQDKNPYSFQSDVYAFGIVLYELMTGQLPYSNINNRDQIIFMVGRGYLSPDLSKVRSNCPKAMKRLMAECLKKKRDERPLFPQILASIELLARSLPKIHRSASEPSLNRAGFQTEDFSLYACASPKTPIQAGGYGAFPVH
For test [3], the target named is RAF proto-oncogene serine/threonine-protein kinase (Homo sapiens, UniProt P04049). As to the kind of experiment: Inhibition of human CRAF using MEK1 as substrate by [gamma-33P]-ATP assay.
Sequence of RAF proto-oncogene serine/threonine-protein kinase (P04049 whole entry): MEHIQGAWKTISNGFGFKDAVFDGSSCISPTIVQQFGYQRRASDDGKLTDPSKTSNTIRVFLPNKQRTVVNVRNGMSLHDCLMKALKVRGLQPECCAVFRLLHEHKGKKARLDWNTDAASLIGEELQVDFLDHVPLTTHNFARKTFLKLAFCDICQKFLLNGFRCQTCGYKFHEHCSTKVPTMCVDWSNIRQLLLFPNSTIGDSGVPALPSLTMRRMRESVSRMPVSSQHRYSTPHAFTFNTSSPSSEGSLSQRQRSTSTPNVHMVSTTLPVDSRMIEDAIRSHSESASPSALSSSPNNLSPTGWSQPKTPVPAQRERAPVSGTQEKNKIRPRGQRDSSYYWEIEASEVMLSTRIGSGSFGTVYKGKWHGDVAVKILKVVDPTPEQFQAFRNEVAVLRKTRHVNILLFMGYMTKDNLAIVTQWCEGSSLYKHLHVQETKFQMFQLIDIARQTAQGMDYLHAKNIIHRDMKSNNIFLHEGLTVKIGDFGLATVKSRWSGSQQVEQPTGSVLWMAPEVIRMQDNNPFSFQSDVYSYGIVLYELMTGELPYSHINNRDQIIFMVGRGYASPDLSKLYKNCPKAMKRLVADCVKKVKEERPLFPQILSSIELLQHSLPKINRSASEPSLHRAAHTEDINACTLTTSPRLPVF
A further test relates to RXF 393. Put plainly: Cytotoxicity against human RXF 393 cells assessed as cell viability at 10 uM incubated for 48 hrs by sulforhodamine B assay relative to control. It counts as functional. The settings on record: read-out: Activity.

The structures appear in SMILES notation.

A word on the IC50: it is the concentration needed to halve the response being measured.

Take `O=C(NCCNc1nccc(-c2c(-c3cccc(F)c3)nc3sccn23)n1)c1ccccc1`: the viability at 10 µM in the test with NCI/ADR-RES came out at 64.9%; with OVCAR-5, 79.9%; in the test on BT-549, 71.2%; in the test on MDA-MB-435, 27%; in the test on 786-0, 45.4%; in the test on TK-10, 73%. Moreover, the viability at 10 µM in the test on OVCAR-4 turned out to be 55.4%; in the test with OVCAR-8, 46.8%; in the test on U-251 it was 59.4%; in the test with Hs-578T it was 64.7%; with OVCAR-3 it was 67.8%; in the test with PC-3 it was 62.9%. Also, the viability at 10 µM was 71.4% with SF-295; 23.7% with Malme-3M; 83.7% with HL-60(TB); 28.4% in the test on M14; 81.2% in the test with SF-539; 60.6% in the test on RXF 393. In addition, the IC50 with SK-MEL-28 amounted to 17000 nM; with A-375 it was 5060 nM; in test [1] it was 37 nM; with L132, 200000 nM; in test [2], 162 nM; in [3], 312 nM.

For `Cc1ccc(S(=O)(=O)NCCCNc2nccc(-c3c(-c4cccc(F)c4)nc4sccn34)n2)cc1`, the viability at 10 µM with NCI/ADR-RES was 79.7%; in the test on OVCAR-5, 111%; with BT-549, 84.5%; in the test on MDA-MB-435 it was 48.8%; with 786-0 it was 78.4%; with TK-10 it was 99.4%. In addition, the viability at 10 µM amounted to 66.2% in the test with OVCAR-4; 60.3% in the test on OVCAR-8; 82.2% in the test with U-251; 84.3% in the test with Hs-578T; 89% in the test with OVCAR-3; 67.7% with PC-3. The viability at 10 µM with SF-295 came to 84.1%; in the test with Malme-3M it was 116%; in the test on HL-60(TB), 119%; with M14, 80.7%; in the test on SF-539, 95.3%; in the test with RXF 393, 80.3%. The IC50 turned out to be 9500 nM with SK-MEL-28; 8380 nM in the test with A-375; 89 nM in test [1]; 182 nM in test [2]; 143 nM in [3].

With `O=S(=O)(NCCCNc1nccc(-c2c(-c3cccc(F)c3)nc3sccn23)n1)c1ccccc1`, the viability at 10 µM came to 53.4% in the test on NCI/ADR-RES; 121% in the test with OVCAR-5; 71.1% in the test on BT-549; 41.7% in the test on MDA-MB-435; 74% in the test with 786-0; 92.8% in the test with TK-10. Also, the viability at 10 µM in the test with OVCAR-4 came out at 54.8%; in the test on OVCAR-8, 43%; with U-251 it was 82.3%; with Hs-578T, 89.9%; in the test on OVCAR-3, 74.9%; in the test with PC-3 it was 53.5%. Moreover, the viability at 10 µM in the test on SF-295 amounted to 79.9%; in the test with Malme-3M it was 82.1%; with HL-60(TB), 101%; with M14 it was 50.5%; in the test on SF-539, 99.1%; in the test on RXF 393, 84%. The IC50 with SK-MEL-28 is 6850 nM; in the test with A-375, 6600 nM; in the test on L132, > 400000 nM.

Turning to `O=S(=O)(NCCCNc1nccc(-c2c(-c3cccc(F)c3)nc3sccn23)n1)c1ccc(Br)cc1`, the viability at 10 µM in the test with NCI/ADR-RES is 34.4%; with OVCAR-5, 110%; with BT-549, 64%; with MDA-MB-435, 31.6%; in the test on 786-0, 73.5%; in the test on TK-10, 74.8%. Moreover, the viability at 10 µM is 34.2% in the test with OVCAR-4; 28% with OVCAR-8; 76.7% in the test with U-251; 71.7% in the test with Hs-578T; 57.8% in the test on OVCAR-3; 40.8% in the test on PC-3. In addition, the viability at 10 µM in the test with SF-295 stood at 64.2%; in the test with Malme-3M, 69.4%; in the test with HL-60(TB), 75.9%; with M14 it was 48.1%; with SF-539, 98%; with RXF 393, 81.8%. Besides, the IC50 in the test on SK-MEL-28 was 9400 nM; in the test with A-375 it was 7040 nM; in test [1], 9.3 nM; in test [2] it was 22.9 nM; in test [3] it was 18.6 nM.

In the case of `O=S(=O)(NCCCNc1nccc(-c2c(-c3cccc(F)c3)nc3sccn23)n1)c1ccc(Cl)cc1`, the viability at 10 µM with NCI/ADR-RES came out at 67.4%; in the test with OVCAR-5, 125%; with BT-549, 85.4%; with MDA-MB-435, 53.1%; in the test with 786-0 it was 83.6%; in the test with TK-10, 99%. Also, the viability at 10 µM in the test on OVCAR-4 was 61.4%; in the test on OVCAR-8, 50.2%; in the test on U-251, 90.2%; in the test with Hs-578T, 94.6%; in the test on OVCAR-3 it was 79.8%; with PC-3, 52%. Besides, the viability at 10 µM in the test with SF-295 came out at 87.1%; with Malme-3M, 107%; in the test with HL-60(TB) it was 106%; in the test with M14, 66.1%; in the test on SF-539, 99.3%; in the test with RXF 393 it was 99.6%. Further, the IC50 with SK-MEL-28 amounted to 8450 nM; in the test with A-375, 5900 nM; in [1] it was 16.2 nM; in [2], 49.6 nM; in test [3], 34 nM.

Consider `O=C(NCCNc1nccc(-c2c(-c3cccc(F)c3)nc3sccn23)n1)c1c(F)cccc1F`, for which the viability at 10 µM in the test with NCI/ADR-RES was found to be 56.9%; in the test with OVCAR-5, 72.7%; in the test with BT-549, 56%; in the test on MDA-MB-435 it was 17.4%; with 786-0 it was 44.2%; in the test with TK-10, 66.6%. The viability at 10 µM is 60.9% in the test on OVCAR-4; 44.2% in the test on OVCAR-8; 49.7% in the test on U-251; 53.3% in the test on Hs-578T; 56.8% in the test with OVCAR-3; 57% in the test with PC-3. The viability at 10 µM came out at 66.8% in the test with SF-295; 31.6% in the test with Malme-3M; 86.4% in the test with HL-60(TB); 29.3% in the test on M14; 65.9% in the test with SF-539; 57.1% in the test with RXF 393. The IC50 in the test on SK-MEL-28 is 11400 nM; in the test on A-375, 2700 nM; in [1], 33.1 nM; in the test on L132 it was 198000 nM; in test [2], 95.3 nM; in [3], 102 nM.

The values are drawn from ChEMBL document CHEMBL4665642, “Anticancer profile of newly synthesized BRAF inhibitors possess 5-(pyrimidin-4-yl)imidazo[2,1-b]thiazole scaffold” (Bioorg Med Chem, 2019).
